From US20240101535A1, “DIHYDROISOQUINOLINONE DERIVATIVE AND APPLICATION THEREOF” (ETERN BIOPHARMA (SHANGHAI) CO., LTD., priority 2020, published 2024)
Read-outs that look alike come from different tables or passages of the source.

Key:
[1] = system: MV4-11 cells; experiment: MV4-11 cell proliferation inhibition experiment (CellTiter-Glo); assay type: cell-based; conditions: 6 days, read-out: cell proliferation inhibitory activity
Method: Test Example 2: MV4-11 Cell (ATCC: CRL-9591) Proliferation Inhibition Experiment
ATP in living cells was quantitatively detected by CellTiter-Glo (Promega-G7573) Luminescence Cell Viability Assay Kit to determine the effect of the compounds to be tested on cell proliferation. • Step 1: MV4-11 cells were seeded in 96-well plates (Greiner-655098) at a density of 1,500 cells per well with a volume of 140 μL per well; Cell culture medium components included RPM11640 (Gibco-A10491-01)+10% FBS (Gibco-10099-141C)+1% Penicillin-Streptomycin (5,000 U/mL, Gibco-15070-063). • Step 2: On the day of cell seeding, the cells were treated with the compound to be tested. The compound to be tested was diluted with a 3-fold gradient, and a total of 9 concentration gradients were set. DMSO (Sigma, D2650) with 0.5% final concentration or a DMSO solution containing the compound to be tested was added per well with 2 or 3 replicate wells at each concentration point. The plates were incubated at 37° C. in a 5% CO2 incubator (Thermo Scientific Steri-Cycle 371) for 6 days. • Step 3: The cell viability in the control and treatment groups was detected with CellTiter-Glo Luminescent Cell Viability Assay Kit. 50 μL of CellTiter-Glo was added per well, mixed well, and incubated for 15 min at room temperature protected from light. According to the kit instructions, the chemiluminescence signal was read using a multifunctional microplate reader (EnVision, PerkinElmer).
The inhibition percentage (%) of the compound at each concentration point was calculated by the following formula:
Inhibition Percentage (%)=(1−signal value of the group treated with the compound/signal value of the group treated with DMSO)*100.
The value of cell proliferation semi-inhibitory concentration IC50 was calculated using GraphPad Prism software, and the results are shown in Table 2.

[2] = target: WDR5 protein (22-334aa) with MLL1 polypeptide (3672-3773aa) (Homo sapiens, UniProt P61964); experiment: WDR5-MLL PPI inhibitory activity test (HTRF); assay type: binding; conditions: His-tagged WDR5 and biotin-tagged MLL1 polypeptide
Text: Test Example 1: WDR5-MLL PPI Inhibitory Activity Test
Effect of the compounds on WDR5 (WD Repeat Domain 5) and MLL1 (mixed-lineage leukemia 1) peptides at molecular level.
The effect of the compound on the interaction of WDR5 protein (22-334aa) with MLL1 polypeptide (3672-3773aa) was detected by HTRF (Homogeneous Time-Resolved Fluorescence) technology. When the N-terminal His-tagged WDR5 recognized by the Anti-6His-Eu cryptate donor interacts with the biotin-tagged MLL1 polypeptide recognized by the streptavidin-APC receptor, the donor and acceptor are pulled close enough to produce fluorescence resonance energy transfer (FRET). […] Therefore, the decrease in FRET signal can reflect the compound's inhibition on the interaction of WDR5 with MLL1 polypeptide.
The compound to be tested was diluted 3-fold with DMSO. […] Then the compound was diluted with reaction buffer (25 mM HEPES pH=7.5, 100 mM NaCl, 0.05% Tween 20) to control the final concentration of DMSO at 0.5%. In a 384-well plate, 1 μL of compound and 3 μL of 42 nM WDR5 protein were added, centrifuged at 1000 rpm for 1 min, incubated at room temperature for 60 min, followed by adding 3 μL of 333 nM MLL1 polypeptide with incubation at room temperature for 10 min, and followed by adding 3 μL of a mixed liquid of Anti-6His-Eu cryptate and streptavidin-APC with centrifugation at 1000 rpm for 1 mi and incubation at room temperature protected from light for 60 min, using a multifunction microplate reader (EnVision®2105) to read the signal. The following controls were set up per plate: control group (1 μL with 5% DMSO reaction buffer, 3 μL of 42 nM WDR5, 3 μL of MLL1 polypeptide, 3 μL of Anti-6His-Eu cryptate and streptavidin-APC). Blank group (1 μL reaction buffer with 5% DMSO, 3 μL reaction buffer, 3 μL MLL1 polypeptide, 3 μL Anti-6His-Eu cryptate and streptavidin-APC). The test data was calculated according to the signal ratio of two beams of fluorescence at different wavelengths: (665 nm signal/620 nm signal)*10000. […] The IC50 value was calculated using XLfit software.

IC50 ([1]; Homo sapiens, 144 h) [nM]	IC50 [2] [nM]	IC50 [1] [nM]	Compound
< 50	< 20		CCOc1cc(C(C)N2CC3(CC3(F)F)c3c(CN(C)C)cc(Cn4ccnc4NC)cc3C2=O)ncc1F (single isomer, unassigned) [Compound 88]
	< 20	< 50	CCOc1cc(C(C)N2CC3(CC3(F)F)c3c(CN(C)C)cc(Cn4ccnc4NC)cc3C2=O)ncc1F (single isomer, unassigned) [Compound 89]
	< 20		CCOc1cc([C@H](C)N2C[C@@]3(CC3(F)F)c3c(CN(C)C)cc(Cn4ccnc4NC)cc3C2=O)ncc1F (stereo in doubt) [Compound 97, (R)-5′-((dimethylamino)methyl)-2′-((S)-1-(4-ethoxy-5-fluoropyridine-2-yl)ethyl)-2,2-difluoro-7′-((2-(methylamino)-1H imidazol-1-yl)methyl)-2′, 3′-dihydro-1′H-spiro[cyclopropan-1,4′-isoquinoline]-1′-one]
	< 20		CCOc1cc([C@H](C)N2CC3(CC3)c3c(CN4CCCCC4)cc(Cn4ccnc4NC)cc3C2=O)ncc1F [Compound 7]
	< 20		CCOc1cc([C@H](C)N2CC3(CC3)c3c(CN(C)CC#N)cc(Cn4ccnc4NC)cc3C2=O)ncc1F [Compound 43]
	< 20		CCOc1cc([C@H](C)N2CC3(CCC3)c3c(CN4CCNCC4)cc(Cn4ccnc4NC)cc3C2=O)ncc1C#N [Compound 49, (S)-4-ethoxy-6-(1-(7′-((2-(methylamino)-1H-imidazol-1-yl)methyl)-1′-one-5′-(piperazin-1-ylmethyl)-1′H-spiro[cyclobutan-1,4′-isoquinoline]-2′(3′H)-yl)ethyl)nicotinonitrile]
	< 20		CCOc1cc([C@H](C)N2CC3(CC3)c3c(CN4CC(N(C)C)C4)cc(Cn4ccnc4NC)cc3C2=O)ncc1F [Compound 58, (S)-5′-((3-(dimethylamino)azetidinyl-1-yl)methyl)-2′-(1-(4-ethoxy-5-fluoropyridine-2-yl)ethyl)-7′-((2-(methylamino)-1H-imidazol-1-yl)methyl)-2′,3′-dihydro-1′H-spiro[cyclopropan-1,4′-isoquinoline]-1′-one]
	< 20		CCOc1cc([C@H](C)N2CC3(CC3)c3c(CN4CCN(CC(F)(F)F)CC4)cc(Cn4ccnc4NC)cc3C2=O)ncc1F [Compound 62]
	< 20		CCOc1cc([C@H](C)N2CC3(CC3)c3c(CN4CCN(CCC(F)(F)F)CC4)cc(Cn4ccnc4NC)cc3C2=O)ncc1F [Compound 65]
	< 20		CCOc1cc(CN2CC3(CC3)c3c(CN4CCN(C)CC4)cc(Cn4ccnc4NC)cc3C2=O)ncc1F [Compound 69, 2′-((4-ethoxy-5-fluoropyridine-2-yl)methyl)-7′-((2-(methylamino)-1H-imidazol-1-yl)methyl)-5′-((4-methylpiperazin-1-yl)methyl)-2′,3′-dihydro-1′H-spiro[cyclopropan-1,4′-isoquinoline]-1′-one]
	< 20		CCOc1cc([C@H](C)N2CC3(CCC3)c3c(CN4CCC(N(C)C)CC4)cc(Cn4ccnc4NC)cc3C2=O)ncc1C#N [Compound 74]
	< 20		CCOc1cc([C@H](C)N2CC3(CCC3)c3c(CN4CCC(NC)CC4)cc(Cn4ccnc4NC)cc3C2=O)ncc1C#N [Compound 75, (S)-4-ethoxy-6-(1-(7′-((2-(methylamino)-1H-imidazol-1-yl)methyl)-5′-((4-(methylamino)piperidin-1-yl)methyl)-1′-one-1′H-spiro[cyclobutan-1,4′-isoquinoline]-2′(3′H)-yl)ethyl)nicotinonitrile]
	20 to 100		CCOc1cc(CN2CC3(CC3)c3c(CN(C)C)cc(Cn4ccnc4NC)cc3C2=O)ncc1F [Compound 76, 5′-((dimethylamino)methyl)-2′-((4-ethoxy-5-fluoropyridine-2-yl)methyl)-7′-((2-(methylamino)-1H-imidazol-1-yl)methyl)-2′,3′-dihydro-1′H-spiro[cyclopropan-1,4′-isoquinoline]-1′-one]
	< 20		CCOc1cc([C@H](C)N2CC3(CCC3)c3c(CN4CCN(C(C)=O)CC4)cc(Cn4ccnc4NC)cc3C2=O)ncc1F [Compound 86, (S)-5′-((4-acetylpiperazin-1-yl)methyl)-2′-(1-(4-ethoxy-5-fluoropyridine-2-yl)ethyl)-7′-((2-(methylamino)-1H-imidazol-1-yl)methyl)-2′,3′-dihydro-1′H-spiro[cyclobutyl-1,4′-isoquinoline]-1′-one]
	< 20		CCOc1cc([C@@H](C)N2C[C@@]3(CC3(F)F)c3c(CN(C)C)cc(Cn4ccnc4NC)cc3C2=O)ncc1F [Compound 90, (R)-5′-((dimethylamino)methyl)-2′-((R)-1-(4-ethoxy-5-fluoropyridine-2-yl)ethyl)-2,2-difluoro-7′-((2-(methylamino)-1H imidazol-1-yl)methyl)-2′, 3′-dihydro-1′H-spiro[cyclopropan-1,4′-isoquinoline]-1′-one]
	20 to 100		CCOc1cc(C(C)N2CC3(CCC3)c3c(CN4CC5(CNC5)C4)cc(Cn4ccnc4NC)cc3C2=O)ncc1C#N (stereo not drawn) [Compound 102]
	20 to 100		CCOc1cc(C(C)N2CC3(CCC3)c3c(CN(C)C)cc(Cn4ccc5ncccc54)cc3C2=O)ncc1C#N (stereo not drawn) [Compound 108, 6-(1-(7′-((1Hpyrrol[3,2-b]pyridine-1-yl)methyl)-5′-((dimethylamino)methyl)-1′-oxo-1′H-spiro[cyclobutan-1,4′-isoquinoline]-2′(3′H)-yl)ethyl)-4-ethoxynicotinonitrile]
	< 20		CCOc1cc([C@H](C)N2CC3(CC3)c3c(C(=O)N(C)C)cc(Cn4ccnc4NC)cc3C2=O)ncc1F [Compound 110]
	< 20		CCOc1cccc2c1CCC2N1CC2(CCC2)c2c(CN(C)C)cc(Cn3ccnc3NC)cc2C1=O (stereo not drawn) [Compound 113, 5′-((dimethylamino)methyl)-2′-(4-ethoxy-2,3-dihydro-1H-indene-1-yl)-7′-((2-(methylamino)-1H-imidazol-1-yl)methyl)-2′,3′-dihydro-1′H-spiro[cyclobutan-1,4′-isoquinoline]-1′-one]
	< 20		CCOc1cc([C@H](C)N2CC3(CC3)c3c(CN(C)C)cc(Cn4cnc5c4CCCC5)cc3C2=O)ncc1F [Compound 114, (S)-5′-((dimethylamino)methyl)-2′-(1-(4-ethoxy-5-fluoropyridine-2-yl)ethyl)-7′-((4,5,6,7-tetrahydro-1H-benzo[d]imidazol-1-yl)methyl)-2′,3′-dihydro-1′H-spiro[cyclopropan-1,4′-isoquinoline]-1′-one]
	20 to 100		CNc1nccn1Cc1cc(CN(C)C)c2c(c1)C(=O)N(C(C)c1ccc(O)c(O)c1)CC21CCC1 (stereo not drawn) [Compound 115, 2′-(1-(3,4-dihydroxylphenyl)ethyl)-5′-((dimethylamino)methyl)-7′-((2-(methylamino)-1H-imidazol-1-yl)methyl)-2′,3′-dihydro-1′H-spiro[cyclobutan-1,4′-isoquinoline]-1′-one]
	< 20		CCOc1cc(CN2CC3(CCC3)c3c(CN(C)C)cc(Cn4ccnc4C)cc3C2=O)ncc1C#N [Compound 117, 6-((5′-((dimethylamino)methyl)-7′-((2-methyl-1H-imidazol-1-yl)methyl)-1′-oxo-1′H-spiro[cyclobutan-1,4′-isoquinoline]-2′-3′H-yl)methyl)-4-ethoxynicotinonitrile]
